Assay results from EP1028734B1, “USE OF SPECIFIC STEADY-STATE R-TYPE CALCIUM CHANNEL BLOCKERS” (priority 1997, dated 1999).

What was measured:
R-type Ca^2+ channel = test: cell attached single channel patch clamp, R-type Ca2+ channel in human aortic vascular smooth muscle cell line; assay type: cell-based
Protocol: Also, for the R-type Ca^2+ channel current, the effect of the compounds are tested on the R-type Ca^2+ channel amplitude, voltage dependency and probability of opening, by using the cell-attached patch clamp technique (Bkaily 1994, supra; 1996, supra) and intra and extra patch pipette application of the drug.
In another series of experiments (n=7), using the cell attached patch clamp technique (Bkaily G. 1994, supra; Bkaily G. et al., 1996, supra), the effect of 10^-7M of MV8608 on the R-type Ca^2+ channel in human aortic vascular smooth muscle cell line was tested. […] In a second series of experiments (n=3), the patch pipette solution was free of MV8608 and after recording the single channel activities at different voltages, MV8608 (final concentration of 10^-7M) was applied to the extra-patch pipette solution containing 140mM KCI (where the rest of the cell is bathing). This experiment was designed to verify whether MV8608 crossed the cell membrane and if so, whether its effect from the internal side of the channel under the patch is the same as that when applied at the outer side thereof. […] Such a pattern of increase of probability of opening and the open duration accompanied with the sporadic decrease of the single channel current amplitude has never been observed when MV8608 was applied at the outer side of the single channel under the patch pipette.
In another series of experiments (n=7), the effect of 10^-7M of MV8612 was tested on the R-type Ca^2+ in human aortic VSM cells, using the single channel cell attached recording technique and intra and extra patch pipette application of drugs.
In one series of experiments (n=3), MV8612 (total concentration, 10^-7M) was only applied to the patch pipette. […] As for MV8608, in one series of experiments (n=4), MV8612 (10^-7M) was only applied to the extra-patch pipette, in order to verify if the compound penetrates into the cytosol and if so, how it affects the R-type Ca^2+ channel activity.

rat paw oedema = assay type: in vivo, rats
Protocol: (§1) In this experiment (N =5 to 6 animals per group), the anti-oedemagenic action of compounds MV 8608 and MV 8612 against bradykinin and several mediators which are reported to be involved in the inflammatory processes, was evaluated. The procedures used to perform these experiments have been reported elsewhere (Neves et al., 1993, Eur. J. Pharmacol. 243:213-219; Campos et al., 1995, Br. J. Pharmacol. 114:1005-1013; Campos et al., 1996, Br. J. Pharmacol. 117:793-798; Eur. J. Pharmacol. 316:227-286). […] As reported previously, in rats treated […] prior to a systemic injection of LPS, both B1 and B2 kinin selective agonists caused marked oedema formation (Figures 37C and D (Campos et al., 1996, supra)).

murine model of pleurisy = assay type: in vivo, mice
Protocol: (§2) To assess further the anti-inflammatory action of MV 8612 and MV 8608, their effects against the inflammatory responses caused by several mediators of inflammation in a murine model of pleurisy were tested (Saleh et al., 1996, Br. J. Pharmacol 118:811-819). In addition, both compounds were tested against the increase of vascular permeability caused by bradykinin in the rat skin (Neves et al., 1993b, Phytotherapy Research. 7:356-362).

[1] = test system: human aortic vascular smooth muscle cell line; test: spontaneous proliferation of human aortic vascular smooth muscle cell line; assay type: cell-based; settings: MV8608 10^-8M, MV8612 10^-8M, nifedipine 10^-7M, Figure 28
[2] = bradykinin-induced skin vascular permeability in rats; assay type: in vivo, rat
Protocol: as §2

[3] = test system: double-perfused mesenteric bed of the rat; test: double-perfused mesenteric bed of the rat
Source text: The inhibitory properties of MV8608 are specific for PAF as the response to ACh (arterial) and Angll (venous) are unaffected by the pregnane-containing moiety.

L-type Ca^2+ channel = test: whole-cell voltage clamp, L-type ICa of heart cells of chick embryos; assay type: cell-based
Protocol: Single cells of different types in culture were prepared from biopsies of human, chick and rabbit. Known and accepted methods for the isolation of fast Na^+ current, T, L and R-type Ca^2+ channels as well as delayed outward K^+ current were used (Bkaily 1994, supra).
The compounds to be tested are added to the appropriate extracellular solution after recording a stable ionic current or normal steady-state level of [Ca]n and [Ca]n The effect of different concentrations of compounds are tested on the different type of current and [Ca]i of the different cell types. The effect of each concentration of the compounds in function of the time of exposure are then determined. Once the steady-state effect is reached, the second concentration is added, etc.
In another series of experiments (n=5), the effect of different concentrations of MV8608 (10^-11 to 10^-6M) were tested on the L-type ICa of heart cells of chick embryos using the whole-cell and experimental conditions and protocols described elsewhere by the inventors (Bkaily G. et al., 1993, supra). As for the T-type ICa' the L-type ICa was not affected by 10^-11 to 10^-10M MV8608.
In another series of experiments (n=4), we tested the effect of MV8612 on the L-type Ca^2+ current (ICa) in chick embryonic heart cells using the whole-cell voltage clamp technique referred to above. Superfusion with 10^-9M of MV8612 decreased ICa amplitude by 10% and increasing the concentration of the compound up to 10^-8M further decreased the current amplitude by 25%. Higher concentration of MV8612 (10^-7M) decreased the ICa amplitude by 62%.

mouse paw oedema = assay type: in vivo, mice; settings: i.p.
Protocol: as §1
When tested in mice, MV 8612 (40 to 160 nmol/paw) inhibited bradykinin and carrageenan-induced paw oedema in mice in a dose-dependent manner (Figures 46A and B).

[4] = 100 nmol/paw, rats treated 30 days prior (text LPS, Figure 37 BCG)
[5] = 10 and 100 nmol/paw co-injected
[6] = 10 and 100 nmol/paw, dose-dependant
[7] = MV 8612 30 and 60, MV 8608 30, i.p.

## (15R, 16R, 20S)-14, 16:15,20:16,21-triepoxi-15,16-seco 14β, 17α-pregn-5-ene-3β, 15-diol [MV8608]
R-type Ca^2+ channel; 10^-7M applied in the patch pipette
  single channel conductance of R-type Ca^2+ channel: without affecting
R-type Ca^2+ channel; 10^-7M applied in the patch pipette, 10^-6M nifedipine present
  single channel amplitude and probability of opening of the single R-type Ca^2+ channel: decreased the single channel amplitude and probability of opening
R-type Ca^2+ channel; 10^-7M applied to the extra-patch pipette solution
  single channel current amplitude: spontaneous decrease and release of the blockade
R-type Ca^2+ channel; 10^-7M applied to the extra-patch pipette solution (140mM KCl)
  opening of the R-type channel (probability, duration, frequency): increased the probability and duration of opening
Rat paw oedema; 100 nmol/paw
  oedema induced by prostaglandin E2 (PGE2): partially inhibited
  oedema induced by substance P: unaffected
  paw oedema induced by PAF: consistently inhibited
Rat paw oedema; [4]
  bradykinin-induced rat paw oedema: significantly inhibited
  des-Arg^9-BK-induced rat paw oedema: significantly inhibited
Rat paw oedema; 10 and 100 nmol/paw
  carrageenan-induced paw oedema: significantly prevented
Rat paw oedema; [5]
  dextran-induced paw oedema: significantly prevented
  histamine-induced paw oedema: significantly prevented
  serotonin-induced paw oedema: significantly prevented
Rat paw oedema; 10 and 100 nmol/paw co-injected, animals treated with LPS
  paw oedema induced by des-Arg^9-bradykinin: dose-related inhibition
Rat paw oedema; 10 and 100 nmol/paw, animals actively sensitised
  oedema formation induced by subplantar injection of ovalbumin: inhibited significantly
Rat paw oedema; 10 and 100 nmol/paw, animals treated with LPS
  bradykinin-induced hindpaw oedema: no significant effect
Rat paw oedema; [6]
  potentiation of paw oedema by low dose of des-Arg^9-BK plus PAF: prevented the potentiation
  potentiation of paw oedema by low dose of des-Arg^9-BK with PGE2: prevented the potentiation
Murine model of pleurisy; 30, i.p.
  mononuclear cells influx, intrapleural PAF: antagonised significantly
  plasma extravasation, intrapleural PAF: antagonised significantly
Murine model of pleurisy; [7]
  neutrophils cells, intrapleural carrageenan: inhibited significantly
  total cells, intrapleural carrageenan: inhibited significantly
[1]
  spontaneous proliferation: significantly decreased
[2]
  increase of vascular permeability caused by bradykinin in the rat skin: antagonised in a dose-related manner
[3]
  response to ACh (arterial) and AngII (venous): unaffected
[3]; 1 µM, Figure 24
  PAF induced arterial vasodilatation and venconstriction: blocked
[3]; concentration series
  PAF-induced responses: concentration-dependent inhibition
L-type Ca^2+ channel; 5 x 10^-7M
  ICa amplitude (L-type), further change: a further slight increase
L-type Ca^2+ channel; 10^-9M
  decrease of ICa amplitude (L-type): 10%
L-type Ca^2+ channel; 10^-11 to 10^-10M
  L-type ICa: not affected
Mouse paw oedema
  paw oedema induced by histamine: dose-related inhibition
  paw oedema induced by serotonin: dose-related inhibition
Mouse paw oedema; 30 min prior
  bradykinin-induced paw oedema: unaffected
